Experimental data: patent US10544460B2, “Homeobox transcription factor ventx regulates differentiation and maturation of human dendritic cells” (priority 2013, dated 2020)

Assays:
VentX [1] = test: VentX knockdown efficiency in monocytes / monocyte-derived DCs; format: cell-based, human; settings: 5 days after transfection
From the text: Following a recent finding that VentX is expressed in human primary monocytes, VentX expression was examined during primary monocytes to dendritic cells differentiation induced by GM-CSF and IL-4 treatment. […] To explore potential role of VentX in DC differentiation, the effects of VentX knockdown on in vitro DCs differentiation were examined. […] (Iwamoto, et al. 2007 J Immunol 179(3): p. 1449-57; Gabriele, et al. 2004 Blood 103(3): p. 980-7.) To obtain a long-lasting knockdown effect of VentX in monocytes, a morpholino (MO) mediated VentX knockdown strategy was developed. Two different morpholino antisense oligonucleotides were designed (VentX MO and VentX MO-2) and tested for the knockdown efficiency of VentX. […] Freshly isolated CD14^+CD1a^− monocytes differentiate in vitro into immature CD14^−CD1a^+ DCs when cultured with GM-CSF and IL-4. […] To corroborate the role of VentX in regulating DCs differentiation, VentX was ectopically expressed in primary monocytes and the CD14^−CD1a^+ cells were determined after 3 days of cytokines treatment. […]
(§1) Dendritic & Antigen Presenting Cell PCR Array was purchased from SABiosciences (Valencia, Calif.). […] (Wu, et al. 2011 J Clin Invest 121(7): p. 2599-613.) Incorporated BrdU was detected with PE-conjugated anti-BrdU antibody and analyzed with flow cytometry.

human primary monocytes = test: Primary monocyte to dendritic cell differentiation induced by GM-CSF and IL4 (flow cytometry of surface antigens); format: cell-based
Method: Peripheral blood mononuclear cells (PBMC) from healthy adult donors at Dana-Farber Cancer Institute were isolated by Ficoll density gradient centrifugation. CD14^+ monocytes were purified from PBMCs using anti-CD14 antibody coated magnetic microbeads (Miltenyi Biotec, Auburn, Calif.). Monocytes were cultured in 12-well plates at 1×10^6 cells/ml with RPMI 1640 medium containing 10% fetal bovine serum (FBS), GM-CSF (100 ng/ml) and IL4 (20 ng/ml) (PeproTech, Rocky Hill, N.J.). Cytokines were added to cultures every 2 or 3 days for a total of 5 days to induce dendritic cells differentiation. Neutralizing antibody against IL6 was purchased from R&D Systems (Minneapolis, Minn.) and used at daily dose of 2.5 μg/ml. Intestinal mucosa was obtained from surgically resected specimens from patients diagnosed with inflammatory bowel diseases including Crohn's disease and ulcerative colitis. Specimens were taken from both inflamed and non-inflamed mucosa and were confirmed macroscopically and microscopically. Lamina propria mononuclear cells were isolated using previously described techniques. (Dillon, et al. 2010 J Immunol 184(12): p. 6612-21; Kamada, et al. 2008 J Clin Invest 118(6): p. 2269-80.) LPDCs were purified as the fraction of CD19^−CD1c^+ cells with magnetic microbeads (Miltenyi Biotec). To promote maturation of DCs, 100 ng/ml of E Coli LPS (Sigma-Aldrich) was added to the medium and further cultured for 24 hours. Experiments with human materials were performed in accordance with guidelines approved by the institutional review committee of Brigham and Women's Hospital. […]
Phenotypic analyses of DCs and THP1 cells were performed with flow cytometry after immunostaining of cells with fluorescence dye conjugated antibodies (eBioscience, San Diego, Calif.). […] Stained cells were analyzed with FACScan flow cytometer (BD Bioscience) using FlowJo software. Results are expressed as the percentage of positive cells or mean fluorescence intensity (MFI) values after subtraction of the MFI obtained from the isotype control antibody.

IL6 = test: Cytokine expression in transfected monocytes (reverse transcription PCR and intracellular staining); format: cell-based, human
Method: To elucidate the mechanisms underlying VentX regulated DCs differentiation and maturation, expression level of cytokines known to be important for DCs development was analyzed by reverse transcription PCR and intracellular staining. […] It has been shown that IL6 inhibits DC differentiation and maturation from both CD14^+ monocytes and CD34^+ progenitor cells. […] The effect of VentX on the activity of […] IL6 promoter luciferase reporter and several deletion mutant constructs was assessed. […] To address this question, neutralizing antibody against IL6 was added to the culture medium of VentX MO transfected monocytes and differentiation of DCs was assessed through flow cytometry analysis of CD1a surface expression.
Phenotypic analyses of DCs and THP1 cells were performed with flow cytometry after immunostaining of cells with fluorescence dye conjugated antibodies (eBioscience, San Diego, Calif.). […] Stained cells were analyzed with FACScan flow cytometer (BD Bioscience) using FlowJo software. Results are expressed as the percentage of positive cells or mean fluorescence intensity (MFI) values after subtraction of the MFI obtained from the isotype control antibody. […]

DCs = format: cell-based, human; settings: after MO transfection; data not shown
From the text: Following a recent finding that VentX is expressed in human primary monocytes, VentX expression was examined during primary monocytes to dendritic cells differentiation induced by GM-CSF and IL-4 treatment. […] To explore potential role of VentX in DC differentiation, the effects of VentX knockdown on in vitro DCs differentiation were examined. […] (Iwamoto, et al. 2007 J Immunol 179(3): p. 1449-57; Gabriele, et al. 2004 Blood 103(3): p. 980-7.) To obtain a long-lasting knockdown effect of VentX in monocytes, a morpholino (MO) mediated VentX knockdown strategy was developed. Two different morpholino antisense oligonucleotides were designed (VentX MO and VentX MO-2) and tested for the knockdown efficiency of VentX. […] Freshly isolated CD14^+CD1a^− monocytes differentiate in vitro into immature CD14^−CD1a^+ DCs when cultured with GM-CSF and IL-4. (Bell, et al. 2001 J Immunol 166(8): p. 4958-67.) Surface expression of CD1a antigen was examined in monocytes transfected with control MO or VentX MO respectively. […] To corroborate the role of VentX in regulating DCs differentiation, VentX was ectopically expressed in primary monocytes and the CD14^−CD1a^+ cells were determined after 3 days of cytokines treatment. Overexpression of VentX in monocytes greatly accelerated the DCs differentiation (FIG. 1E-F).

VentX [2] = test: VentX expression in LPDCs treated with prednisolone (real time PCR); format: cell-based, human; settings: prednisolone 10 μg/ml, 48 hours, vs mock treated; FIG. 6F
Method: (§2) FIG. 6: VentX is required for the maturation of lamina propria DCs. (A) LPDCs were isolated from inflamed and non-inflamed intestinal mucosa of five IBD patients. VentX level was determined with real time PCR. (B) LPDCs were transfected with siRNA targeting VentX or control GFP through electroporation followed by culturing in medium for two days. Then cells were stimulated with LPS for overnight to induce maturation and harvested for flow cytometry analysis of surface markers and intracellular cytokines/chemokines. Filled histograms indicate siGFP transfection. […] Results are expressed as the percentage of MFI normalized to control. […] (D) LPDCs transfected with siGFP or siVentX were analyzed for the mRNA expression levels of indicated genes. […] (F) DCs were treated with prednisolone (10 μg/ml) for 48 hours or mock treated, and VentX level was determined with real time PCR. […]
(§3) Aberrant activation of DCs has been implicated in mucosal inflammation in pathogenesis of inflammatory bowl diseases. […] VetnX expression levels in these DCs were determined by RT-PCR methods. […]
as §1

LPDCs = test: Pro-inflammatory cytokine mRNA in DCs treated with prednisolone and LPS; format: cell-based, human; settings: prednisolone, LPS added 24 hours later, harvested at 48 hours, FIG. 6G
Method: as §2, §3, §1

Compound	VentX expression in DCs compared with control sequence (VentX [1])	expression of CD16, CD36, CD64, mannose receptor (MR) and TLR4 (human primary monocytes; MO transfected DCs)	percentage of CD14-CD1a+ cells (human primary monocytes; monocytes + GM-CSF and IL4, 5 days, in comparison with control MO, FIG. 1A-B)	surface expression of CD1b, CD1c and CD11c (human primary monocytes; monocytes + GM-CSF and IL4, 5 days, vs control MO)	IL1β, TNFα and IL10 expression (IL6; MO transfected cells, data not shown)	IL6 expression (IL6; monocytes + GM-CSF and IL4, 5 days, mRNA and intracellular level, FIGS. 3A and C)	cell death in DCs (DCs)	VentX expression in LPDCs (VentX [2])	expression of pro-inflammatory cytokines, such as the IL2, TNF, CCL5 (LPDCs)
5′-GAGCCCGGTTTGCATACACGGCTAA-3′ (morpholino, further chemistry not given here) [VentX MO-2, Morpholino antisense oligonucleotide targeting VentX]	inhibited VentX expression	–	–	–	–	–	–	–	–
5′-TACTCAACCCTGACATAGAGGGTAA-3′ (morpholino, further chemistry not given here) [VentX MO, Morpholino antisense oligonucleotide targeting VentX]	inhibited VentX expression	remained unchanged	substantial reduction	similarly downregulated	no apparent changes	consistently increased	did not cause excess cell death	–	–
C[C@]12C=CC(=O)C=C1CC[C@@H]1[C@@H]2[C@@H](O)C[C@@]2(C)[C@H]1CC[C@]2(O)C(=O)CO [prednisolone]	–	–	–	–	–	–	–	dramatically decreased	dramatically decreased
